Experiments:
[1] = system: 3MR or INK-ATTAC mice exposed to cigarette smoke; test: Cigarette smoke exposure model (COPD), oxygen saturation; assay type: in vivo, mouse; details: after 2 months of cigarette smoke exposure
Description: Six week-old 3MR (n=35) or INK-ATTAC (n=35) mice were chronically exposed to cigarette smoke generated from a Teague TE-10 system, an automatically-controlled cigarette smoking machine that produces a combination of side-stream and mainstream cigarette smoke in a chamber, which is transported to a collecting and mixing chamber where varying amounts of air is mixed with the smoke mixture. […] Mice received a total of 6 hours of cigarette smoke exposure per day, 5 days a week for 6 months. Each lighted cigarette (3R4F research cigarettes containing 10.9 mg of total particulate matter (TPM), 9.4 mg of tar, and 0.726 mg of nicotine, and 11.9 mg carbon monoxide per cigarette [University of Kentucky, Lexington, Ky.]) was puffed for 2 seconds and once every minute for a total of 8 puffs, with the flow rate of 1.05 L/min, to provide a standard puff of 35 cm^3. The smoke machine was adjusted to produce a mixture of side stream smoke (89%) and mainstream smoke (11%) by smoldering 2 cigarettes at one time. The smoke chamber atmosphere was monitored for total suspended particulates (80-120 mg/m^3) and carbon monoxide (350 ppm). Beginning at day 7, (10) INK-ATTAC and (10) 3MR mice were treated with AP20187 (3×per week) or gancyclovir (5 consecutive days of treatment followed by 16 days off drug, repeated until the end of the experiment), respectively. An equal number of mice received the corresponding vehicle. The remaining 30 mice (15 INK-ATTAC and 15 3MR) were evenly split with 5 of each genetically modified strain placed into three different treatment groups. One group (n=10) received Nutlin-3A (25 mg/kg dissolved in 10% DMSO/3% Tween-20 in PBS, treated 14 days consecutively followed by 14 days off drug, repeated until the end of the experiment). One group (n=10) received ABT-263 (Navitoclax) (100 mg/kg dissolved in 15% DMSO/5% Tween-20, treated 7 days consecutively followed by 14 days off drug, repeated until the end of the experiment), and the last group (n=10) received only the vehicle used for ABT-263 (15% DMSO/5% Tween-20), following the same treatment regimen as ABT-263.
After two months of cigarette smoke exposure, lung function was assessed by monitoring oxygen saturation using the MouseSTAT PhysioSuite pulse oximeter (Kent Scientific). Animals were anesthetized with isoflurane (1.5%) and the toe clip was applied. Mice were monitored for 30 seconds and the average peripheral capillary oxygen saturation (SpO2) measurement over this duration was calculated.

[2] = system: pATM, γH2AX, IkBa, MDM2, p53, p21 in senescent IMR90 cells; test: Immunoblot of DNA damage response proteins in irradiated senescent IMR90 cells treated with Nutlin-3a; assay type: cell-based, human
Description: Primary human fibroblast (IMR90) cells were induced to senesce by applying 10 Gy of irradiation. Seven days after irradiation (Day 0), cells were treated with 10 μM Nutlin-3a or vehicle (DMSO) for nine days (Day 9). The drug or vehicle was refreshed every three days. Drug/vehicle was removed at Day 9 and the cells were cultured for an additional six days in media without drug or DMSO, changing media every three days. Cells were collected at Day 0 (non-senescent cells), Day 9, Day 12, and Day 15, and protein extracted and processed for immunoblotting (Western blotting). Two samples were processed at each time point; the results are provided for one sample in FIG. 14.

Row | Structure (SMILES) | SpO2 levels versus untreated controls [1] | phosphorylation of the kinase ATM (pATM S1981) ([2]; 10 μM, also after drug removal) | level of IkBa ([2]; after drug is removed) | phosphorylation of H2AX (γH2AX) ([2]; after treatment and after drug removal) | levels of MDM2, p53 and p21 protein ([2]; drug present, decreased when drug removed)
1 | Nc1nc(O)c2ncn(COC(CO)CO)c2n1 [ganciclovir] | statistically significant increases |  |  |  | 
2 | COc1ccc(C2=N[C@@H](c3ccc(Cl)cc3)[C@@H](c3ccc(Cl)cc3)N2C(=O)N2CCNC(=O)C2)c(OC(C)C)c1 [Nutlin-3a] | statistically significant increases | lower | approaches the level of IkBa in non-senescent cells | declining levels of phosphorylation | elevated
